Series [1] deals with Trypanosoma. More on the design: method as in earlier work. Conditions: cited from earlier work.
On the set-up of series [2]: method as in earlier work. As to conditions: cited from earlier work.
For series [3], the system named is Trypanosoma brucei rhodesiense. Kind of series: T. b. rhodesiense in vitro growth inhibition. The format is cell-based. As to conditions: for IC50: Trypanosoma brucei, RHODESIENSE / STIB900, Figure 1, bloodstream form STIB 900 strain, read-out: IC50 against Trypanosoma brucei rhodesiense parasites. The procedure: The synthesized compounds were then tested against T. b. rhodesiense parasites as previously reported, and their activities are shown in Figure 1 along with that of B6.
T. b. rhodesiense in vitro growth inhibition activity of 1–3 (Fig. 1) was assessed using bloodstream form of STIB 900 strain, following the procedure reported in Orhan et al..

Series [4] concerns permeabilized T. b. brucei bloodstream-form cells. As to the kind of experiment: Oxygen consumption in permeabilized bloodstream-form cells (Clark electrode). In kind it is cell-based. As to the method:
Oxygen consumption was monitored in a thermostated vessel at 37°C with a Clark electrode (oxygraph). Measurements in permeabilized bloodstream-form T. brucei were done in buffer 1 (96.9 mM NaCl, 3.1 mM KCl, 5 mM MgCl2, 2 mM Na2HPO4, 90 mM Tris at pH 7.5). Batches of 2×10^7 cells were pelleted, washed in buffer 1 and incubated for 5′ on ice in 1 ml of buffer 1 containing 1 ng digitonin to permeabilize the cells. Subsequently the permeabilized cells were pelleted and washed twice with buffer 1 without digitonin after which the pellet was taken up in 1 ml buffer 1 and transferred to the oxygraph. Substrates and inhibitors were added as described in the text.
B6 and SHAM were dissolved in DMSO. The DMSO concentration used in these oxygen consumption measurements was less than 0.7%.
To determine whether B6 could exert its trypanocidal action also through this mechanism, respiration was monitored in permeabilized T. b. brucei bloodstream-form cells in the presence of B6 and/or SHAM (Fig. 7). SHAM is an inhibitor of TAO, which acts as the final electron acceptor in bloodstream form T. b. brucei.

Series [5] concerns the target TbGK (Trypanosoma brucei brucei, UniProt Q9NJP9). As to the kind of experiment: T. b. brucei glycerol kinase enzyme-coupled spectrophotometric assay. Conditions: mean of three independent experiments; 25°C. The format is biochemical. As to the method: The expression construct has been obtained by subcloning the corresponding GK gene (isolated from T. b. brucei strain Lister 427) from the formerly designed pET15-TbGK plasmid into vector pET28 to create the final expression plasmid pET28-TbGK (unpublished data). TbGK was then expressed in E. coli BL21(DE3)-CodonPlus-RIL grown in 1 liter LB medium supplemented with kanamycin (50 µg/ml) and chloramphenicol (34 µg/ml) for 16 h at 37°C. Expression was induced by adding 1 mM isopropyl β-d-thiogalactanopyranoside (IPTG), and growth was continued for another 2 h at 37°C. […] TbGK was eluted using a 10 column volumes linear imidazole-gradient using buffer A and buffer B. Eluted fractions were analyzed by SDS-PAGE. […] After overnight incubation at 16°C, the digested protein was concentrated and desalted using a Superdex 75 column equilibrated with buffer A. Protein concentration was determined at 280 nm (extinction coefficient = 81650 M^−1 cm^−1). […]
The TbGK activity was measured using a modified version of a continuous enzyme-coupled spectrophotometric assay developed previously. […] The IC50 value of B6 was calculated as the mean of three independent experiments.

Series [6] has as its target TbGAPDH (Trypanosoma brucei brucei, UniProt P22512). As to the kind of experiment: T. b. brucei glyceraldehyde-3-phosphate dehydrogenase enzyme-coupled spectrophotometric assay. The format is biochemical. As to conditions: for IC50: 10 min pre-incubation. As to the method: The kinetics of the TbGAPDH reaction was monitored using a continuous enzyme-coupled spectrophotometric assay, as previously described. In brief, TbGAPDH activity was measured following the NADH oxidation at 340 nm, in a coupled assay with 3-phosphoglycerate kinase and using a Jasco V-550 spectrophotometer.
All measurements were performed at 25°C in 0.01 M triethanolamine, pH 7.6, 1.7 mM ATP, 1 mM EDTA, 100 mM KCl, 5 mM MgSO4, 1.7 mM NaHCO3, 25 µg 3-phosphoglycerate kinase. The IC50 values were determined in a final volume of 1 ml in the presence of 120 ng TbGAPDH and 5.6 mM 3-phosphoglycerate (3-PGA), while varying the B6 concentration after a pre-incubation of enzyme plus inhibitor for 10 min. The reaction was started by the addition of 0.2 mM NADH. Each point of the curve was measured in triplicates and the value for IC50 was estimated from graphically plotted dose-response curves.
The type of inhibition was determined with respect to NADH and 3-PGA in consideration of Michaelis-Menten steady-state conditions. To investigate the inhibition mechanism with respect to NADH, TbGAPDH was incubated for 10 min at room temperature with different inhibitor concentrations (0–15 µM) in a total volume of 1 ml. The reaction was initiated by the addition of 5.6 mM 3-PGA and NADH (ranging from 5 µM to 200 µM). The inhibition mechanism with respect to 3-PGA was determined in a similar way. To this end, TbGAPDH was incubated with varying inhibitor concentrations (10 nM–100 µM). The reaction was initiated by the addition of 0.2 mM NADH and 3-PGA (ranging from 50 µM to 5.6 mM). The α and Ki values were obtained from Dixon and secondary plots. The reported values represent the mean of two independent experiments.

For series [7], the system named is bloodstream-form T. b. brucei strain Lister 427. As to the kind of experiment: Growth inhibition (LILIT) of bloodstream-form T. b. brucei. In kind it is cell-based. Conditions: cultured bloodstream form. The procedure:
(§1) We used bloodstream and procyclic forms of T. b. brucei strain Lister 427, cell lines 449 [34], constitutively expressing the E. coli tetracycline (Tet) repressor gene via the chromosomally integrated plasmid pHD449 that also confers phleomycin resistance. Bloodstream forms were cultured in HMI-9 medium containing 10% heat-inactivated foetal calf serum (Invitrogen) and 0.18 µg/ml phleomycin (Cayla) at 37°C under water-saturated air with 5% CO2. Procyclic trypanosomes were grown in SDM79 medium supplemented with 15% foetal calf serum and 0.5 µg/ml phleomycin at 28°C under water-saturated air with 5% CO2. The glucose-depleted SDM-80 medium, first employed by Lamour et al., was supplemented with 5 µg/ml hemin, 9% (v/v) dialyzed “glucose free” heat-inactivated foetal calf serum (Sigma) and 1% (v/v) of normal heat-inactivated foetal calf serum (Invitrogen).
(§2) The anti-trypanosomal activity tests were also performed on T. b. brucei according to the “Long Incubation Low Inoculation Test” (LILIT), [39] using cultured bloodstream and procyclic forms of T. b. brucei strain Lister 427, cell line 449 [34].

Series [8] deals with procyclic T. b. brucei strain Lister 427. As to the kind of experiment: Growth inhibition (LILIT) of procyclic T. b. brucei with or without glucose. The format is cell-based. The procedure:
as §1, §2
Tests of growth inhibition by B6 were performed on procyclic trypanosomes cultured in medium containing glucose (SDM79 medium), resulting in glycolytic activity for the cells' main energy supply, or without glucose (SDM80 medium), where the proline is the main substrate for free energy production through mitochondrial metabolism. Under these latter conditions, the glycosomal GAPDH would still be needed for gluconeogenesis, to synthesize glucose 6-phosphate for production of glucoconjugates, but the gluconeogenic flux is assumed to be much lower than the glycolytic flux when glucose is present.

Series [9] deals with bloodstream form T. b. brucei G6PDH RNAi cell line. Kind of series: Growth inhibition of bloodstream-form T. b. brucei G6PDH RNAi cell line. The format is cell-based. From the text:
To provide support for the notion that the trypanocidal effect of B6 could in part be attributed to the generation of toxic ROS, we made use of an available bloodstream form T. b. brucei cell line in which glucose-6-phosphate dehydrogenase (G6PDH) expression can be knocked down by RNA interference (RNAi). Previously, it has been shown that this cell line grows equally well as wild-type cells under normal (reducing) growth conditions, but it is highly susceptible to ROS when the G6PDH expression is partially knocked down, an effect attributed to decreased NADPH production.

Series [10] has as its system T. b. brucei bloodstream-form mitochondria. Kind of series: ROS (H2O2) production by mitochondrial fraction, H2DCFDA fluorescence. In kind it is cell-based. As to conditions: 10 µM B6, in the presence of G3P. As to the method:
Bloodstream- and procyclic-form T. b. brucei cells (strain Lister 427, cell line 449) were cultured up to the exponential growth phase and homogenates were obtained by grinding the washed parasite pellets with silicon-carbide abrasive grain (mesh 300) in disruption buffer containing 250 mM sucrose, 25 mM Tris-HCl and l mM EDTA, pH 7.8 (STE buffer). Differential centrifugation was performed as follows: the suspension was taken up in another 3 ml STE buffer and centrifuged at 30 g for 3 min. The supernatant, representing the cell homogenate, was centrifuged at 1,500 g for 10 min giving the nuclear fraction. The post-nuclear supernatant was then centrifuged at 5,000 g for 10 min giving the large-granular (mitochondria-enriched) fraction as pellet. This fraction was resuspended in 300 µl STE buffer.
The method used to measure H2O2 production in T. b. brucei mitochondria is based on the fluorogenic probe 2′,7′-dichlorodihydrofluorescein diacetate (H2DCFDA) which emits an intense green fluorescence only after deacetylation and subsequent oxidation. ROS production by the mitochondrial fraction of bloodstream form T. b. brucei was measured in a 96-well microtiter plate using a fluorescence plate reader (Victor Wallace multiplate reader).
In each well, 0.25 mg mitochondrial protein/ml and 5 µM H2DCFDA to a final volume of 0.2 ml with 10 mM Tris-HCl, 50 mM KCl, 1 mM EDTA, pH 7.5 were present. […]

For series [11], the system named is Trypanosoma brucei rhodesiense. More on the design: method as in PMID 18353643. As to conditions: cited from earlier work.
The subject of series [12] is mammalian cell lines. More on the design: method as in PMID 18353643. Conditions: ratio of ED50 values on mammalian cell lines and trypanosomes; cited from earlier work.

“And” between values parts separate entries of the source, which are not always exact repeats. Identical values can stand only once. “Also recorded” adds a separate entry of the source. Like-named read-outs stand apart in the source and are kept apart here.

Sequence of TbGAPDH (P22512 whole entry): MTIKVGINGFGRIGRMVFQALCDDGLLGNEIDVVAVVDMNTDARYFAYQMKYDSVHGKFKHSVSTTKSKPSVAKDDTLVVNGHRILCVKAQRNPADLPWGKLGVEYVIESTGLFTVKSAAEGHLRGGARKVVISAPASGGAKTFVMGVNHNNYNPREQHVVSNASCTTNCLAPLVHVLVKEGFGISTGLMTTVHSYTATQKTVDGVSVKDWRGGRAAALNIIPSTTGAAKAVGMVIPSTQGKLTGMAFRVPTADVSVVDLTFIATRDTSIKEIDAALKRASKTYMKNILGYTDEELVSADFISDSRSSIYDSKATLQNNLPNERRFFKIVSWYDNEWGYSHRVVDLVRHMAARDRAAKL
Sequence of TbGK (Q9NJP9 whole entry): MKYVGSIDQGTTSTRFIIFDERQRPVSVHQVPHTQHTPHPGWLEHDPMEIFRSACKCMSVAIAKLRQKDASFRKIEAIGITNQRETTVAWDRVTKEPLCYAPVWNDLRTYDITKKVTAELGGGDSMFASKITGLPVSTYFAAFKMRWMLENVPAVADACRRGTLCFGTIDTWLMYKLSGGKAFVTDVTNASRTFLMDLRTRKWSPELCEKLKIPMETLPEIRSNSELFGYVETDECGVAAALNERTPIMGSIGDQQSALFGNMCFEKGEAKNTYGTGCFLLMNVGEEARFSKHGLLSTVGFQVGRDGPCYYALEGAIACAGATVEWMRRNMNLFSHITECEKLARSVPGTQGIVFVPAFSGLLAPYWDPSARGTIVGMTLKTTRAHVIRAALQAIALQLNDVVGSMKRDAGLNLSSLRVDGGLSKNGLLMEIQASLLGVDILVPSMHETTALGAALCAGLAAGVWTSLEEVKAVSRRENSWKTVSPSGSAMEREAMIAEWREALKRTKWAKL

Turning to `CC(C)=CCC1=C(O)C(=O)c2ccccc2C1=O` [lapachol], in series [1], the anti-trypanosomal profile result was “marked anti-trypanosomal profile”. For the same compound, the “toxic effects in humans” value in series [2] was “no serious toxic effects in humans”.

With `O=C1C=C(Oc2ccccc2)C(=O)c2c(O)cccc21` [Compound 3, 8-hydroxy-2-phenoxy-[1,4]naphthoquinone], the IC50 in [3] was found to be 0.85 µM.

As for `O=C1C(Oc2ccccc2)=CC(=O)c2c(O)cccc21` [Compound 2, 5-hydroxy-2-phenoxy-[1,4]naphthoquinone], the IC50 in [3] was determined as 4.4 µM.

Turning to `O=C(NO)c1ccccc1O` [SHAM, salicylhydroxamic acid, reference compound], the respiration entry in series [4] (2 mM SHAM, 10 mM G3P as electron donor) was “inhibited respiration completely”.

As to `O=C1C=C(Oc2ccccc2)C(=O)c2ccccc21` [B6, 2-phenoxy-1,4-naphthoquinone], the IC50 in series [5] was 0.9 ± 0.3 µM; in series [6] (then 1:10 dilution of enzyme and inhibitor, read-out: IC50 TbGAPDH after dilution 1:10), 9.98 ± 3.53 µM; in series [6] (standard conditions, without dilution, read-out: IC50 TbGAPDH), 7.25 ± 1.62 µM; in series [11] (Figure 1, lead B6, read-out: IC50 against Trypanosoma brucei rhodesiense parasites) it was 0.08 µM. The Ki in [6] (variation of 3-PGA) is 5 µM and 4.99 µM; in series [6] (variation of NADH), 3.6 µM. In addition, the α value in [6] (with respect to 3-PGA) is on record as 0.4; in [6] (with respect to NADH) it was 0.6. Further, the “type of inhibition of TbGAPDH” value in [6] (with respect to NADH and 3-PGA, double reciprocal plots) is given as “non-competitive inhibitor (mixed type)”. Further, the “ED50 bloodstream-form T. b. brucei strain Lister 427” value in series [7] came out at 24.8 µM. The “fold more susceptible, procyclic versus bloodstream-form” value in series [8] (glucose-grown cells, strain Lister 427) was 100 fold. The ED50 procyclic trypanosomes was 0.25 ± 0.09 µM and 0.25 µM in [8] (medium containing glucose (SDM79)); 0.67 ± 0.16 µM in series [8] (without glucose (SDM80), proline metabolism). The “ED50 induced RNAi cell line” value in [9] (G6PDH expression knocked down by RNAi) came to 0.25 µM. In addition, the “ED50 non-induced RNAi cell line” value in series [9] (non-induced) is on record as 10.8 µM. Further, the oxygen consumption rate entry in [4] (cells respiring on 10 mM G3P, absence and presence of SHAM) is “the oxygen consumption rate increased”. Further, the ROS production result in [10] was “able to generate radicals in a significant way; also recorded: considerable production of ROS”. Besides, in [11] (in vitro cultured parasites), the “ED50 against Trypanosoma brucei rhodesiense” value is 0.08 µM. Further, the selectivity index in series [12] is listed as 74.

In the case of `Nc1ccc(OC2=CC(=O)c3ccccc3C2=O)cc1` [Compound 1, 2-(4-amino-phenoxy)-[1,4]naphthoquinone], the IC50 in series [3] worked out at 0.57 µM. For the same compound, in series [3] (anti-T. b. rhodesiense activity relative to B6), the “times less active than B6” value is listed as 7 times.

In general, IC50 refers to the concentration needed to halve the response being measured. One may read the Ki as the dissociation constant of the complex between target and ligand, obtained from inhibition or displacement. Read a low Ki as higher affinity.
